Where two headings read alike, the source gives them in different places.

In data set [1] the target is T1, full-length beta-Catenin (Uniprot ID P35222) (Homo sapiens, UniProt P35222).
T1 construct: 10 nM full-length beta-Catenin (Uniprot ID P35222)
T1 sequence (P35222 1-781): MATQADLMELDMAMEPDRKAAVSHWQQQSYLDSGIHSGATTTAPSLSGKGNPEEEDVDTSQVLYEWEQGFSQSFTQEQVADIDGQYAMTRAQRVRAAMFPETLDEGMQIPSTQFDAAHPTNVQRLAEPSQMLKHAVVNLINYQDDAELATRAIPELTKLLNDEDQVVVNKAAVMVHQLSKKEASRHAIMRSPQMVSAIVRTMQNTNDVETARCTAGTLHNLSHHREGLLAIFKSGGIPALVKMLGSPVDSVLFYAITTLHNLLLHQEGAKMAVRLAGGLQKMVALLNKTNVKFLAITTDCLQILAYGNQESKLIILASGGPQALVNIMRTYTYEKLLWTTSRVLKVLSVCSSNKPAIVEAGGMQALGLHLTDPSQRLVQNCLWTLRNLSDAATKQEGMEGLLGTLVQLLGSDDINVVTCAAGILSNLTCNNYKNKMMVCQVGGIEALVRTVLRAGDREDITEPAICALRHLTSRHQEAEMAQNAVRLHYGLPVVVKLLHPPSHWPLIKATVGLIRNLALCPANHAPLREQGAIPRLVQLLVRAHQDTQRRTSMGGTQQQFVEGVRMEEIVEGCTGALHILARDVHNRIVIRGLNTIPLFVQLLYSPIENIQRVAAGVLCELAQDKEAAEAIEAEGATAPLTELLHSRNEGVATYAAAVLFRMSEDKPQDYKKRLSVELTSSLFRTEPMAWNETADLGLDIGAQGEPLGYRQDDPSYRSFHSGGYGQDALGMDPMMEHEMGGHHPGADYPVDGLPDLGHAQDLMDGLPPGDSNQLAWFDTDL
Nature of the data set: Fluorescence polarization IC50 (beta-catenin / 5FAM-TCF4 10-53 competition). The class given is binding.

The nature of another data set: CHI Log D procedure. The class given is physicochemical. The settings on record: for CHI Log D: pH 7.4; for chromatographic logD: pH 7.4, CHI Log D.
[2] abbreviates: fluorescence polarization, read-out: beta-Catenin FP IC50.

For the compound `CC[C@H](C)[C@@H]1NC(=O)C[C@H](C(=O)O)NC(=O)[C@]2(CC=CCCCC3(CCCC=CCCCCCC[C@@](C)(C(=O)N[C@@H](Cc4ccccc4)C(=O)N[C@@H](Cc4csc5ccccc45)C(=O)N[C@@H](CCC(N)=O)C(N)=O)NC(=O)[C@H](CCC(N)=O)NC(=O)[C@H](Cc4ccccc4)NC(=O)[C@H](C)NC(=O)[C@H](C)NC(=O)[C@H](CCC(=O)O)NC(=O)[C@H](CC(=O)O)NC3=O)NC1=O)CCCN2C(C)=O` (stereo partly drawn) [I-668, Ac-PL3-isoDAsp-Ile-B5-Asp-Glu-Ala-Ala-Phe-Gln-S8-Phe-BztA-Gln-NH2], the IC50 in data set [1] (setting [2]) and in data set [1] (read-out: FP EC50) was 675 nM each time. Besides, the “CHI Log D” value in the data set “CHI Log D procedure” turned out to be 2.199.

Consider `CC[C@H](C)[C@@H]1NC(=O)C[C@H](C(=O)O)NC(=O)[C@]2(CC=CCCCC3(CCCC=CCCCCCC[C@@](C)(C(=O)N[C@@H](Cc4ccccc4)C(=O)N[C@@H](Cc4csc5ccccc45)C(=O)N[C@@H](CCC(N)=O)C(N)=O)NC(=O)[C@H](CCC(N)=O)NC(=O)[C@H](Cc4ccccc4)NC(=O)[C@H](C)NC(=O)[C@H](C)NC(=O)[C@H](CCC(=O)O)NC(=O)[C@H](CC(=O)O)NC3=O)NC1=O)CCCN2C(C)=O` (stereo partly drawn) [I-669, Ac-PL3-isoDAsp-Ile-B5-Asp-Glu-Ala-Ala-Phe-Gln-S8-Phe-BztA-Gln-NH2], for which the IC50 in data set [1] (setting [2]) and in data set [1] (read-out: FP EC50) was 451 nM throughout. For the same compound, the “CHI Log D” value in “CHI Log D procedure” turned out to be 2.25.

As for `CC[C@H](C)[C@@H]1NC(=O)C[C@H](CC(=O)O)NC(=O)[C@]2(CC=CCCCC3(CCCC=CCCCCCC[C@@](C)(C(=O)N[C@@H](Cc4ccccc4)C(=O)N[C@@H](Cc4csc5ccccc45)C(=O)N[C@@H](CCC(N)=O)C(N)=O)NC(=O)[C@H](CCC(N)=O)NC(=O)[C@H](Cc4ccccc4)NC(=O)[C@H](C)NC(=O)[C@H](C)NC(=O)[C@H](CCC(=O)O)NC(=O)[C@H](CC(=O)O)NC3=O)NC1=O)CCCN2C(C)=O` (stereo partly drawn) [I-671, Ac-PL3-RbGlu-Ile-B5-Asp-Glu-Ala-Ala-Phe-Gln-S8-Phe-BztA-Gln-NH2], the IC50 in data set [1] (setting [2]) and in data set [1] (read-out: FP EC50) was 3140 nM in each case. The “CHI Log D” value in the data set “CHI Log D procedure” was found to be 2.25.

Turning to `CC[C@H](C)[C@@H]1NC(=O)C[C@@H](CC(=O)O)NC(=O)[C@]2(CC=CCCCC3(CCCC=CCCCCCC[C@@](C)(C(=O)N[C@@H](Cc4ccccc4)C(=O)N[C@@H](Cc4csc5ccccc45)C(=O)N[C@@H](CCC(N)=O)C(N)=O)NC(=O)[C@H](CCC(N)=O)NC(=O)[C@H](Cc4ccccc4)NC(=O)[C@H](C)NC(=O)[C@H](C)NC(=O)[C@H](CCC(=O)O)NC(=O)[C@H](CC(=O)O)NC3=O)NC1=O)CCCN2C(C)=O` (stereo partly drawn) [I-672, Ac-PL3-SbGlu-Ile-B5-Asp-Glu-Ala-Ala-Phe-Gln-S8-Phe-BztA-Gln-NH2], the IC50 in data set [1] (setting [2]) stood at 5000 nM. The same compound displayed a chromatographic logD in the data set “CHI Log D procedure” of 1.9.

For the compound `CC[C@H](C)[C@@H]1NC(=O)[C@H](CC(=O)O)NC(=O)[C@]2(CC=CCCCC3(CCCC=CCCCCCC[C@@](C)(C(=O)N[C@@H](Cc4ccccc4)C(=O)N[C@@H](Cc4csc5ccccc45)C(=O)N[C@@H](CCC(N)=O)C(N)=O)NC(=O)[C@H](CCC(N)=O)NC(=O)[C@H](Cc4ccccc4)NC(=O)[C@H](C)NC(=O)[C@H](C)NC(=O)[C@H](CCC(=O)O)NC(=O)C[C@@H](C(=O)O)NC3=O)NC1=O)CCCN2C(C)=O` (stereo partly drawn) [I-673, Ac-PL3-Asp-Ile-B5-isoAsp-Glu-Ala-Ala-Phe-Gln-S8-Phe-BztA-Gln-NH2], the IC50 in data set [1] (setting [2]) came out at 5000 nM. Further, in “CHI Log D procedure”, the chromatographic logD was found to be 1.87.

In the case of `CC[C@H](C)[C@@H]1NC(=O)[C@H](CC(=O)O)NC(=O)[C@]2(CC=CCCCC3(CCCC=CCCCCCC[C@@](C)(C(=O)N[C@@H](Cc4ccccc4)C(=O)N[C@@H](Cc4csc5ccccc45)C(=O)N[C@@H](CCC(N)=O)C(N)=O)NC(=O)[C@H](CCC(N)=O)NC(=O)[C@H](Cc4ccccc4)NC(=O)[C@H](C)NC(=O)[C@H](C)NC(=O)[C@H](CCC(=O)O)NC(=O)C[C@H](C(=O)O)NC3=O)NC1=O)CCCN2C(C)=O` (stereo partly drawn) [I-674, Ac-PL3-Asp-Ile-B5-isoDAsp-Glu-Ala-Ala-Phe-Gln-S8-Phe-BztA-Gln-NH2], in data set [1] (setting [2]), the IC50 worked out at 5000 nM. Moreover, in the data set “CHI Log D procedure”, the chromatographic logD was found to be 1.95.

Consider `CC[C@H](C)[C@@H]1NC(=O)[C@H](CC(=O)O)NC(=O)[C@]2(CC=CCCCC3(CCCC=CCCCCCC[C@@](C)(C(=O)N[C@@H](Cc4ccccc4)C(=O)N[C@@H](Cc4csc5ccccc45)C(=O)N[C@@H](CCC(N)=O)C(N)=O)NC(=O)[C@H](CCC(N)=O)NC(=O)[C@H](Cc4ccccc4)NC(=O)[C@H](C)NC(=O)[C@H](C)NC(=O)[C@H](CCC(=O)O)NC(=O)C[C@H](CC(=O)O)NC3=O)NC1=O)CCCN2C(C)=O` (stereo partly drawn) [I-675, Ac-PL3-Asp-Ile-B5-RbGlu-Glu-Ala-Ala-Phe-Gln-S8-Phe-BztA-Gln-NH2], for which the IC50 in data set [1] (setting [2]) is 4520 nM. The compound further yielded a chromatographic logD in the data set “CHI Log D procedure” of 2.13.

On to `CC[C@H](C)[C@@H]1NC(=O)[C@H](CC(=O)O)NC(=O)[C@]2(CC=CCCCC3(CCCC=CCCCCCC[C@@](C)(C(=O)N[C@@H](Cc4ccccc4)C(=O)N[C@@H](Cc4csc5ccccc45)C(=O)N[C@@H](CCC(N)=O)C(N)=O)NC(=O)[C@H](CCC(N)=O)NC(=O)[C@H](Cc4ccccc4)NC(=O)[C@H](C)NC(=O)[C@H](C)NC(=O)[C@H](CCC(=O)O)NC(=O)C[C@@H](CC(=O)O)NC3=O)NC1=O)CCCN2C(C)=O` (stereo partly drawn) [I-676, Ac-PL3-Asp-Ile-B5-SbGlu-Glu-Ala-Ala-Phe-Gln-S8-Phe-BztA-Gln-NH2], for which, in data set [1] (setting [2]), the IC50 amounted to 5000 nM. The compound also yielded a chromatographic logD in the data set “CHI Log D procedure” of 2.29.

For the compound `CC(=O)N1CCC[C@]12CC=CCCCC1(CCCC=CCCCOC(=O)N3CC[C@@](C(=O)N[C@@H](Cc4ccsc4)C(=O)N[C@@H](Cc4csc5ccccc45)C(=O)N[C@@H](Cc4c[nH]cn4)C(N)=O)(C3)NC(=O)[C@H](CC(N)=O)NC(=O)[C@H](Cc3ccccc3)NC(=O)[C@H](C)NC(=O)[C@H](C)NC(=O)[C@H](CC(=O)O)NC(=O)[C@H](CC(=O)O)NC1=O)NC(=O)[C@H](CC(C)(C)C)NC(=O)[C@H](CC(=O)O)NC2=O` (stereo partly drawn) [I-695, Ac-PL3-Asp-Npg-B5-Asp-Asp-Ala-Ala-Phe-Asn-PyrS2-3Thi-BztA-His-NH2], the IC50 in data set [1] (setting [2]) was determined as 5 nM. In the data set “CHI Log D procedure”, the “CHI Log D” value was 2.117.

On to `CC[C@H](C)[C@@H]1NC(=O)[C@H](CC(=O)O)NC(=O)[C@]2(CC=CCCCC3(CCCC=CCCCCCC[C@@](C)(C(=O)N[C@@H](Cc4ccsc4)C(=O)N[C@@H](Cc4csc5ccccc45)C(=O)N[C@@H](CCC(N)=O)C(N)=O)NC(=O)[C@H](CC(N)=O)NC(=O)[C@H](Cc4ccccc4)NC(=O)[C@H](C)NC(=O)[C@H](C)NC(=O)[C@H](CN(CC(=O)O)CC(F)(F)F)NC(=O)[C@H](CC(=O)O)NC3=O)NC1=O)CCCN2C(C)=O` (stereo partly drawn) [I-700, Ac-PL3-Asp-Ile-B5-Asp-TfeGA-Ala-Ala-Phe-Asn-S8-3Thi-BztA-Gln-NH2], for which the IC50 in data set [1] (setting [2]) and in data set [1] (read-out: FP EC50) was 49 nM each time. Moreover, in the data set “CHI Log D procedure”, the “CHI Log D” value amounted to 2.607.

As for `CC(=O)N1CCC[C@]12CC=CCCCC1(CCCC=CCCCCCC[C@@](C)(C(=O)N[C@@H](Cc3ccccc3)C(=O)N[C@@H](Cc3csc4ccccc34)C(=O)N[C@@H](CCC(N)=O)C(=O)N[C@@H](C)C(N)=O)NC(=O)[C@H](CC(N)=O)NC(=O)[C@H](Cc3ccccc3)NC(=O)[C@H](C)NC(=O)[C@H](C)NC(=O)[C@H](CCC(=O)O)NC(=O)[C@H](CC(=O)O)NC1=O)NC(=O)[C@H](CC(C)C)NC(=O)[C@H](CC(=O)O)NC2=O` (stereo partly drawn) [I-729, Ac-PL3-Asp-Leu-B5-Asp-Glu-Ala-Ala-Phe-Asn-S8-Phe-BztA-Gln-Ala-NH2], the IC50 in data set [1] (setting [2]) and in data set [1] (read-out: FP EC50) was 56 nM throughout. Also, the “CHI Log D” value in “CHI Log D procedure” is given as 2.366.

As to `CC[C@H](C)[C@H](NC(=O)[C@H](CCC(N)=O)NC(=O)[C@H](Cc1csc2ccccc12)NC(=O)[C@H](Cc1ccccc1)NC(=O)[C@]1(C)CCCCCCC=CCCCC2(CCCC=CC[C@]3(CCCN3C(C)=O)C(=O)N[C@@H](CC(=O)O)C(=O)N[C@@H](CC(C)C)C(=O)N2)C(=O)N[C@@H](CC(=O)O)C(=O)N[C@@H](CCC(=O)O)C(=O)N[C@@H](C)C(=O)N[C@@H](C)C(=O)N[C@@H](Cc2ccccc2)C(=O)N[C@@H](CC(N)=O)C(=O)N1)C(N)=O` (stereo partly drawn) [I-732, Ac-PL3-Asp-Leu-B5-Asp-Glu-Ala-Ala-Phe-Asn-S8-Phe-BztA-Gln-Ile-NH2], the IC50 in data set [1] (setting [2]) and in data set [1] (read-out: FP EC50) was 4220 nM in each case. Moreover, the “CHI Log D” value in the data set “CHI Log D procedure” is listed as 2.121.

Regarding `CC[C@@H](C)[C@@H](NC(=O)[C@H](CCC(N)=O)NC(=O)[C@H](Cc1csc2ccccc12)NC(=O)[C@H](Cc1ccccc1)NC(=O)[C@]1(C)CCCCCCC=CCCCC2(CCCC=CC[C@]3(CCCN3C(C)=O)C(=O)N[C@@H](CC(=O)O)C(=O)N[C@@H](CC(C)C)C(=O)N2)C(=O)N[C@@H](CC(=O)O)C(=O)N[C@@H](CCC(=O)O)C(=O)N[C@@H](C)C(=O)N[C@@H](C)C(=O)N[C@@H](Cc2ccccc2)C(=O)N[C@@H](CC(N)=O)C(=O)N1)C(N)=O` (stereo partly drawn) [I-734, Ac-PL3-Asp-Leu-B5-Asp-Glu-Ala-Ala-Phe-Asn-S8-Phe-BztA-Gln-dIle-NH2], the IC50 in data set [1] (setting [2]) and in data set [1] (read-out: FP EC50) was 370 nM each time. Also, the “CHI Log D” value in the data set “CHI Log D procedure” is 2.713.

The values are drawn from patent US20240116985A1, “STAPLED PEPTIDES AND METHODS THEREOF” (priority 2020, published 2024).
